The values below come from ChEMBL document CHEMBL1152064, “Nucleosides and nucleotides. 128. (2S)-2-deoxy-2-C-methyl-5-iodouridine (SMIU) as a novel potent anti-herpes virus agent” (Bioorg Med Chem Lett, 1994).

What is called CC50 is the concentration giving 50% cytotoxicity. High values mean lower toxicity to the cells, low ones greater toxicity to the cells. As a reminder, the EC50 is the concentration that produces a half-maximal response.

Converted amounts (≈) assume the structure as drawn. Some results are limits rather than exact numbers.

Experiment [1] has as its system NC-37. Briefly: Cytotoxic concentration required to inhibit NC-37 cells by 50%. Format: functional. Particulars: Homo sapiens.
The subject of experiment [2] is NC-37. Briefly: Concentration required to reduce HSV-1 (KOS strain) induced cytopathogenicity in NC-37 cells. In kind it is functional, cell-based. The conditions noted are these: Homo sapiens. A general note: Cytopathic effects are the visible damage that an infection or toxin causes in cultured cells.

`C[C@H]1[C@H](O)[C@@H](CO)O[C@H]1n1cc(Cl)c(N)nc1=O` registered a CC50 in experiment [1] greater than 100 µg/mL. In experiment [2], this molecule gave a concentration giving a half-maximal response (EC50) greater than 100 µg/mL.
`C[C@H]1[C@H](O)[C@@H](CO)O[C@H]1n1cc(F)c(N)nc1=O` came in with a CC50 in experiment [1] of 0.22 µg/mL (≈ 0.849 µM). Besides, the response in experiment [2] was half-maximal at 0.22 µg/mL (≈ 0.849 µM) (EC50).
`C[C@H]1[C@H](O)[C@@H](CO)O[C@H]1n1cc(I)c(=O)[nH]c1=O` displayed a CC50 in experiment [1] greater than 100 µg/mL. For the same molecule, in experiment [2], the response was half-maximal at 0.14 µg/mL (≈ 0.38 µM) (EC50).
Molecule `C[C@H]1[C@H](O)[C@@H](CO)O[C@H]1n1cc(Br)c(N)nc1=O` displayed a CC50 in experiment [1] greater than 100 µg/mL. The EC50 in experiment [2] was greater than 100 µg/mL.
In turn, `C[C@H]1[C@H](O)[C@@H](CO)O[C@H]1n1cc(F)c(=O)[nH]c1=O` registered a CC50 in experiment [1] greater than 100 µg/mL. The EC50 in experiment [2] was greater than 100 µg/mL.
The molecule `C[C@H]1[C@H](O)[C@@H](CO)O[C@H]1n1cc(I)c(N)nc1=O` gave a 50% cytotoxic concentration (CC50) in experiment [1] greater than 100 µg/mL. The molecule also displayed an EC50 in experiment [2] of 4.8 µg/mL (≈ 13.1 µM).
On to `C[C@H]1[C@H](O)[C@@H](CO)O[C@H]1n1cc(Br)c(=O)[nH]c1=O`, for which the CC50 in experiment [1] was greater than 100 µg/mL. In experiment [2], this molecule displayed an EC50 of 11 µg/mL (≈ 34.3 µM).
In experiment [1], `C[C@H]1[C@H](O)[C@@H](CO)O[C@H]1n1cc(Cl)c(=O)[nH]c1=O` showed a cytotoxic concentration (CC50) greater than 100 µg/mL. Moreover, in experiment [2], the EC50 is greater than 100 µg/mL.
`Nc1nc2c(ncn2COCCO)c(=O)[nH]1` [ACYCLOVIR] came in with a half-maximal cytotoxic concentration (CC50) in experiment [1] greater than 100 µg/mL. The EC50 in experiment [2] was 0.17 µg/mL (≈ 0.755 µM).
The molecule `Nc1nc(=O)n([C@@H]2O[C@H](CO)[C@@H](O)[C@@H]2F)cc1I` [FIACITABINE] displayed a CC50 in experiment [1] of 63 µg/mL (≈ 170 µM). Besides, it took 0.1 µg/mL (≈ 0.269 µM) to reach a half-maximal effect in experiment [2] (EC50).
In the case of `O=c1[nH]c(=O)n([C@@H]2O[C@H](CO)[C@@H](O)[C@@H]2F)cc1I` [FIALURIDINE], the CC50 in experiment [1] worked out at 6.7 µg/mL (≈ 18 µM). In experiment [2], this molecule yielded an EC50 of 0.06 µg/mL (≈ 0.161 µM).
In experiment [1], `O=c1[nH]c(=O)n([C@H]2C[C@H](O)[C@@H](CO)O2)cc1I` [IDOXURIDINE] came in with a CC50 of 80 µg/mL (≈ 226 µM). Further, in experiment [2], the EC50 is greater than 80 µg/mL.
